Results on two compounds are retold here after ChEMBL document CHEMBL1127976, “Synthesis and anti-HCMV activity of 9-[[(ethoxyhydroxyphosphinyl)methoxy]methoxy]guanine, an isostere of PMEG monoethyl ester” (Bioorg Med Chem Lett, 1994).

≈ marks a conversion by molar mass, not a printed value. Where only a bound is given, the exact number is not on record here.

One data set has as its system HEL 299. Nature of the data set: Compound was tested for its cytotoxicity against human embryonic lung fibroblast cells (HEL 299) by MTT dye reduction assay. In kind it is functional.
Data set [1] in a line: Therapeutic index measured as ratio of EC50 for Davis/CC50 for HEL 299. Conditions: human; read-out: Therapeutic index.
In data set [2] the test system is Human betaherpesvirus 5. Nature of the data set: Concentration of compound required to inhibit 50% of HCMV strain Davis induced cytopathic effect. In kind it is functional, organism-based.
Data set [3] can be described thus: Therapeutic index measured as ratio of […]. Conditions: human; read-out: Therapeutic index.
Data set [4] has as its system Human betaherpesvirus 5. Nature of the data set: Concentration of compound required to inhibit 50% of HCMV strain AD-169 induced cytopathic effect. In kind it is functional, organism-based.

In the case of `Nc1nc2c(ncn2COC(CO)CO)c(=O)[nH]1` [GANCICLOVIR], in the data set with HEL 299, the CC50 is above 400 µg/mL. In addition, the selectivity ratio in data set [1] was above 500; in data set [3], above 200. Also, the EC50 with Human betaherpesvirus 5 [2] is 0.8 µg/mL (≈ 3.13 µM); with Human betaherpesvirus 5 [4], 1.9 µg/mL (≈ 7.44 µM).
The compound `CCOP(=O)(O)COCOn1cnc2c(O)nc(N)nc21` had a cytotoxic concentration (CC50) in the data set with HEL 299 above 400 µg/mL. The selectivity ratio in data set [1] is above 700; in data set [3] it was above 200. For the same compound, the results for the EC50 with Human betaherpesvirus 5 [2] and in the data set with Human betaherpesvirus 5 [4] were 0.6 µg/mL (≈ 1.88 µM) and 1.8 µg/mL (≈ 5.64 µM), respectively.
